Experimental data taken from patent publication US12264163B2, “Compounds and methods for treating fibrotic pathologies” (Mayo Foundation for Medical Education and Research, priority 2019, dated 2025).
Structures can show the parent of a compound that is named as a salt. Where two headings read alike, the source gives them in different places.

Key:
YAP/TAZ [1] = test: YAP/TAZ nuclear localization in IPF patient-derived lung fibroblasts treated with dopaminergic agonists; format: cell-based, human; conditions: 10 μM, 2 hours
Outline: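 Fibroblasts from IPF patients (N=4 patient samples) were exposed to dopaminergic agonists at 10 μM for 2 h before fixation. Cells were immunostained for YAP/TAZ with DAPI counterstain and imaged at 4×. Percent nuclear YAP/TAZ localization was quantified by automated image analysis.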

αSMA [2] = test: αSMA intensity (fibroblast activation) in IPF patient-derived lung fibroblasts + TGFβ, dopaminergic agonist library; format: cell-based, human; conditions: Homo sapiens, SMA, 72 h, 1 μM + TGFβ, read-out: αSMA intensity (% of DMSO control)
Outline: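 Cells under the indicated conditions were immunostained overnight for αSMA (1:200), with fluorescent secondary antibodies and DAPI. Imaged by fluorescence microscopy. […]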

[3] = cited from earlier work
YAP/TAZ [4] = test: YAP/TAZ nuclear localization in IMR-90 and other fibroblasts / mesenchymal cells (immunofluorescence); format: cell-based, human; conditions: fibroblasts / mesenchymal cells on plastic, 2 hours
Procedure: Selective agonists of dopamine receptor D1 with varying efficacy inhibit YAP/TAZ nuclear localization; this effect can be overcome by treatment with a DRD1 receptor antagonist (SCH 39166, 3 μM), (Dihydrexidine, 10 μM). IMR-90 cells treated 2 hours prior to fixation. N=4 (****p<0.0001 vs. 0.10% DMSO vehicle control). Scale bar represents 100 μm.
In each case DHX treatment (10 μM) can reverse this effect on YAP/TAZ. IMR-90 cells plated densely onto plastic cell culture plates for 24 hours in media containing 0.1% FBS, treated for 2 hours prior to fixation. N=4 (****p<0.0001 vs. 0.1% DMSO vehicle control), (++++p<0.0001 vs. the respective stimulated agonist ET-1, LPA, or 5-HT). Scale bar represents 100 μm.
Mesenchymal cells derived from lung (IMR-90 and IPF-FBs) hepatic stellate cells (HSC), human adult cardiac fibroblasts, (HACF) and human dermal fibroblasts (HDF) were plated densely (Confluent) or sparsely (Control and all remaining conditions) onto plastic cell culture plates for 24 hours in media containing 0.10% FBS, treated for 2 hours with Rho kinase inhibitor Y27632, adenylate cyclase activator forskolin and DHX. N=4, Cells that were positive for nuclear YAP/TAZ were quantified by automated image analysis.
(§1) Immunofluorescence Microscopy: Cells were plated into 96 well plates (Corning 3603) in their specific growth media and allowed to attach (8 hours). Media was then exchanged for the indicated conditions for each experiment. Cells were fixed in 3.7% formalin (Sigma-Aldrich), permeabilized in 0.25% Triton X-100 (Sigma-Aldrich) and then blocked with 1% BSA for 1 h. Cells or tissue sections were incubated overnight with mouse monoclonal antibody against αSMA (Sigma-Aldrich F3777), and/or a rabbit monoclonal antibody against YAP/TAZ (Cell Signaling D24E4) diluted 1:200 in PBS with 1% BSA. Cells were then washed and exposed to flourescence-conjugated secondary antibodies (Invitrogen) diluted 1:1000 and DAPI (Thermo Fisher Scientific). Images were taken with a Cytation5 (BioTek) microscope. For scoring αSMA positive cells (FIG. 12), an observer blinded to the treatment conditions counted αSMA-positive cells using a visual threshold for bright fibrous staining; a minimum of 200 cells was counted for each condition. YAP/TAZ localization was quantified (FIGS. 6-10, 24-26, and 29-30) using Gen5 (Biotek) software. Images were taken at 4× magnification of both DAPI and YAP/TAZ staining. […] Quantification of double positive (YAP/TAZ and αSMA) cells from lung tissue sections (FIG. 17-21) was performed similarly; however separate thresholds were established for both YAP/TAZ and αSMA. A minimum of 4000 cells was quantified for each mouse.

YAP/TAZ [5] = test: YAP/TAZ nuclear localization in adult lung fibroblasts, dose response (Cytation 5); format: cell-based; conditions: Homo sapiens, Fibroblast, 2 h, adult lung fibroblasts sparsely plated, treated 2 hours; read-out: IC50, inhibition of YAP/TAZ nuclear localization
Procedure: Adult lung fibroblasts (N=2) sparsely plated into 96-well plates. Treated for 2 hours with compounds prior to fixing and immunostaining for YAP/TAZ.
as §1

Collagen I = Collagen I deposition by TGFβ-stimulated adult lung fibroblasts (LI-COR Odyssey); format: cell-based; conditions: Homo sapiens, Fibroblast, 2 ng/mL TGFβ 96 hours, compound every 48 hours
Procedure: (§2) FIG. 72 contains a line plot showing that compound CTC-3 inhibits Collagen I deposition. Adult lung fibroblasts plated into 96-well plates, stimulated with 2 ng/mL TGFβ for 96 hours and treated with the indicated concentration of compounds every 48 hours. Imaging and quantification of Collagen I intensity performed through automation using a LI-COR Odyssey.
as §2, with “73” for “72”, “CTC-6” for “CTC-3”, “Odyssey. (IC50 is 0.4 μM).” for “Odyssey.”
as §2, with “91B” for “72”, “1” for “CTC-3”
Imaging and quantification of collagen I intensity performed through automation using a LI-COR Odyssey.

αSMA [6] = test: Fibroblast activation: αSMA intensity in TGFβ-stimulated adult lung fibroblasts; format: cell-based; conditions: Homo sapiens, SMA, 2 ng/mL TGFβ 96 hours, compound every 48 hours
Procedure: as §2, with “70” for “72”, “fibroblast activation.” for “Collagen I deposition.”, “αSMA” for “Collagen I”, “Cytation 5. (IC50 is 0.3 μM).” for “LI-COR Odyssey.”
as §2, with “71” for “72”, “CTC-6” for “CTC-3”, “fibroblast activation.” for “Collagen I deposition.”, “αSMA” for “Collagen I”, “Cytation 5.” for “LI-COR Odyssey.”
as §2, with “91A” for “72”, “1” for “CTC-3”, “fibroblast activation.” for “Collagen I deposition.”, “αSMA” for “Collagen I”, “Cytation 5.” for “LI-COR Odyssey.”
Alpha-smooth muscle actin (αSMA) staining is a well-defined marker of fibroblast activation observed in wound healing and tissue fibrosis. […] Imaging and quantification of αSMA intensity performed through automation using a Cytation 5.

lung fibroblasts = test: Fibroblast proliferation (counting DAPI nuclei); format: cell-based, human; conditions: adult lung fibroblasts, 2 ng/mL TGFβ, DAPI nuclei count
Procedure: IPF fibroblast and Normal lung fibroblast co-culture proliferation. Cell are prelabelled with fluorescent dyes (red and green) and then cocultured at a ratio of about 1:1 in 96 well plates. Cell counts are determined every 24 hours and plotted as a ratio of IPF/HLF cells. In the control wells the IPF cells outgrow and take over the well. N=2.
Proliferation of lung fibroblasts (IMR-90 cells) measured for 4 days in the presence of GPCR agonists ET-1 (100 nM) and LPA (10 μM)+/−10 μM DHX. Cells were fixed and counted with DAPI at the end of each day. N=3 technical triplicates.
Adult lung fibroblasts plated into 96-well plates, stimulated with 2 ng/mL TGFβ and compounds at the indicated concentration. Proliferation determined by fixing and counting DAPI nuclei using a Cytation 5. N=2.
Fibroblasts were stimulated with 2 ng/mL TGFβ and treated with compound 1 (MS-9) at the indicated concentration (0.1 μM, 1 μM, and 10 μM). Proliferation determined by fixing and counting DAPI nuclei using a Cytation.

Structure (SMILES)	Nuclear localization (% of total cells) (YAP/TAZ [1]; IPF-1 patient fibroblasts)	Nuclear localization (% of total cells) (YAP/TAZ [1]; IPF-2 patient fibroblasts)	Nuclear localization (% of total cells) (YAP/TAZ [1]; IPF-3 patient fibroblasts)	Nuclear localization (% of total cells) (YAP/TAZ [1]; IPF-4 patient fibroblasts)	activity at 1 µM (αSMA [2]; IPF-1 patient fibroblasts)	activity at 1 µM (αSMA [2]; IPF-2 patient fibroblasts)	activity at 1 µM (αSMA [2]; IPF-3 patient fibroblasts)	activity at 1 µM (αSMA [2]; IPF-4 patient fibroblasts)	oxidation / stability at physiological pH [3]	YAP/TAZ nuclear localization (YAP/TAZ [4])	IC50 (YAP/TAZ [5])	IC50 (Collagen I)	IC50 (αSMA [6])	fibroblast proliferation (lung fibroblasts)
CN1CCc2cccc3c2[C@H]1Cc1ccc(O)c(O)c1-3 [(R)-(−)-Apomorphine•HCl, (R)-(−)-Apomorphine]	29.21 % of total cells	31.97 % of total cells	27.47 % of total cells	17.86 % of total cells	7.07%	1.17%	0.962%	33.7%	oxidized into the inactive quinone					
Oc1ccc(C2CNCCc3c2cc(O)c(O)c3Cl)cc1 (stereo not shown) [Fenoldopam•HCl, Fenoldopam]	68.1 % of total cells	50.32 % of total cells	66.64 % of total cells	63 % of total cells					stable at physiological pH	reduced nuclear localization of YAP/TAZ				
NCC1OC(c2ccncc2)Cc2c1ccc(O)c2O (stereo not shown) [CTC-6]											62 nM	400 nM	100 nM	inhibits fibroblast proliferation
NCC1OC(C2CCOCC2)Cc2c1ccc(O)c2O (stereo not shown) [CTC-3]												700 nM	300 nM	inhibits fibroblast proliferation
